Test results published in patent US9757375B2, “Compounds that inhibit human DNA ligases and methods of treating cancer” (University of Maryland, Baltimore, priority 2007, dated 2017).
Entries after “also recorded” stand apart in the source; their conditions may differ. Where two headings read alike, the source gives them in different places.

What was measured:
hLigI = target: T1, hLigI (Homo sapiens, UniProt P18858); experiment: High-throughput fluorescence-based DNA joining (ligation) assay; type: biochemical; details: for inhibition of hLigI (DNA ligase I), in words: in vitro screen, 100 μmol/L, the 15 hLigI inhibitors inhibited by >50%
T1 construct: made in house
T1 sequence (P18858 whole entry): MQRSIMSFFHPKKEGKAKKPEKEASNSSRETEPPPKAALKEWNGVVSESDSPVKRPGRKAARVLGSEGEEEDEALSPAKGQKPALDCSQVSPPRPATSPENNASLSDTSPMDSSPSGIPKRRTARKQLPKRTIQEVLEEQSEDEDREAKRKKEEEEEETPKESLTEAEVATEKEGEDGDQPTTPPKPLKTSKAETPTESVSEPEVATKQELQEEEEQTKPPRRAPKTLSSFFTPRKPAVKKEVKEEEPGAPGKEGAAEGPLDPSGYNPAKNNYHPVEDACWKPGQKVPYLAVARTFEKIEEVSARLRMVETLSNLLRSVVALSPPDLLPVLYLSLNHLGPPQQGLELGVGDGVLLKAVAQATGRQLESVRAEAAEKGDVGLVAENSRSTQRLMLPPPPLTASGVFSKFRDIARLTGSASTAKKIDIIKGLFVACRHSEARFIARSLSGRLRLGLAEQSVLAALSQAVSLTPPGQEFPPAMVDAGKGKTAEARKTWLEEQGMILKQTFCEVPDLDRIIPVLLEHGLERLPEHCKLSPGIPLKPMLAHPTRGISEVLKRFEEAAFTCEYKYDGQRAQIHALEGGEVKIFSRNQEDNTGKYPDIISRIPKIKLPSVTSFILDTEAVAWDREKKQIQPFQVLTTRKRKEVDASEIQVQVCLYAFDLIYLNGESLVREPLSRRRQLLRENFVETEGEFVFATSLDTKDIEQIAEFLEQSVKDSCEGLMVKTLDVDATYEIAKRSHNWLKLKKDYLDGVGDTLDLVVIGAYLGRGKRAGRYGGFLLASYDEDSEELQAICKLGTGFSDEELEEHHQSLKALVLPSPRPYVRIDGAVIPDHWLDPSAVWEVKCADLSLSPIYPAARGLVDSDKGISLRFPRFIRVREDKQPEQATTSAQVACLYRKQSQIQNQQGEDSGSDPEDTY
Procedure, shortened: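 Nicked DNA substrate (10 pmol) was incubated with 0.25 pmol hLigI, with or without 100 μmol/L test compound, in duplicate. Afterwards the DNA was denatured and renatured with a 20-fold excess of unmodified oligonucleotide. Ligation forms an AF488/BHQ1 hairpin, read as reduced fluorescence at 518 nm.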

human DNA ligase III = target: T2, human DNA ligase III (Homo sapiens, UniProt P49916); experiment: as above; type: biochemical; details: for inhibition at 100 µM: read-out: In vitro % inhib hLigIII 100; for % activity Inhibition hLigIII 100 uM: Ø not defined (0 in Table 5A)
T2 sequence (P49916 1-862 isoform P49916-4): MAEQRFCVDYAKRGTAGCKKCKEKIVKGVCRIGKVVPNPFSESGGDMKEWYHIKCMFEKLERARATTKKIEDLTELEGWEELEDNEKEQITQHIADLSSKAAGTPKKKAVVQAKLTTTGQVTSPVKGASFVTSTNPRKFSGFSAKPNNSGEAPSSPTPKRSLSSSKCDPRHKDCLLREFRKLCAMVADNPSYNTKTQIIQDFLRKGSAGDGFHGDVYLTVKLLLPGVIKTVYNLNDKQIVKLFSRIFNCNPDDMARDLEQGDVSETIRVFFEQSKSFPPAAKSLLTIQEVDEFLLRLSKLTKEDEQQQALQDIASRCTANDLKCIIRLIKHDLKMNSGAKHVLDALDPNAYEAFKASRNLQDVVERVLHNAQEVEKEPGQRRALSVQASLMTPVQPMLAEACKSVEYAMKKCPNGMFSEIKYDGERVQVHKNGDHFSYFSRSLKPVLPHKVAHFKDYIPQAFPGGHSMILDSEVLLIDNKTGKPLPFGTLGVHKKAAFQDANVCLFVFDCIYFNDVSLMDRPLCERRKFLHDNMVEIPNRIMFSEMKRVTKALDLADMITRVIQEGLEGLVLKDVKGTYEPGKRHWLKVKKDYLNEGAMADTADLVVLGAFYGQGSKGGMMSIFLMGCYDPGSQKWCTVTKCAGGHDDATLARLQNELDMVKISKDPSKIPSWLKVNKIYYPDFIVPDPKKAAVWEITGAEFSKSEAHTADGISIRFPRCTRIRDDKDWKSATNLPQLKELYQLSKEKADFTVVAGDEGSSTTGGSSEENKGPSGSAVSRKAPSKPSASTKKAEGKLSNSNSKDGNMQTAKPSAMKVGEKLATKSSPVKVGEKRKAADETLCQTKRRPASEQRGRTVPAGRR
Procedure, shortened: (§1)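 Ligation joins an AF488-labelled and a BHQ1-labelled oligonucleotide. After denaturation and renaturation with a 20-fold excess of unlabelled competitor strand, the product forms a quenched hairpin, so joining is read as loss of 518 nm fluorescence. Ligase III used a nicked duplex; ligase IV used two duplexes with short complementary single-strand ends.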

human DNA ligase IV = human DNA ligase IV (Homo sapiens, UniProt P49917); experiment: as above; type: biochemical; details: for inhibition of human DNA ligase IV, in words: in vitro screen
Sequence of human DNA ligase IV (P49917 whole entry): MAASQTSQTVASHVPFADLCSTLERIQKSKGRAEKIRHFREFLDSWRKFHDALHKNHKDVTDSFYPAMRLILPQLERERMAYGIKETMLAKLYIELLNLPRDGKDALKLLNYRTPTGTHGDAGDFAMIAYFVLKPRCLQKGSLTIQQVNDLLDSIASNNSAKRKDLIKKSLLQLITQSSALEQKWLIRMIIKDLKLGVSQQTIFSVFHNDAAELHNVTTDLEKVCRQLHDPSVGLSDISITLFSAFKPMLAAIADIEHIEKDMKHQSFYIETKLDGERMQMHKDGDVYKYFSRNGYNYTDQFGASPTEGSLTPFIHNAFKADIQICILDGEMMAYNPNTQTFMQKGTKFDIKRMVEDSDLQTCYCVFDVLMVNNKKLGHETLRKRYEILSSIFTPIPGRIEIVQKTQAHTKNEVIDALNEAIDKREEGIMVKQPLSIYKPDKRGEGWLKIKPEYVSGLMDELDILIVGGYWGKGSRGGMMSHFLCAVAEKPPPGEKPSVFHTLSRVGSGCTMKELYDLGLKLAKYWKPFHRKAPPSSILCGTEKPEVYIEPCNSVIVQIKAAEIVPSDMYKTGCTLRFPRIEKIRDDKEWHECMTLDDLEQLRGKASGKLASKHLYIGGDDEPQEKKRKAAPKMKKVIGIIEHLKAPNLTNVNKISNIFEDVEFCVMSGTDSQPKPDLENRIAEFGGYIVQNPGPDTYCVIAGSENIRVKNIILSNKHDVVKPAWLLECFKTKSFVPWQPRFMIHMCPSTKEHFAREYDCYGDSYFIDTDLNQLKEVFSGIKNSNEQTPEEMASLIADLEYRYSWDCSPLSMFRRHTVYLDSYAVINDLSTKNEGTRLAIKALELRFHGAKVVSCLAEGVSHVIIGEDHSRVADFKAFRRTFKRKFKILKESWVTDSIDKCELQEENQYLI
Sequence of human DNA ligase IV (Q13426 whole entry partner): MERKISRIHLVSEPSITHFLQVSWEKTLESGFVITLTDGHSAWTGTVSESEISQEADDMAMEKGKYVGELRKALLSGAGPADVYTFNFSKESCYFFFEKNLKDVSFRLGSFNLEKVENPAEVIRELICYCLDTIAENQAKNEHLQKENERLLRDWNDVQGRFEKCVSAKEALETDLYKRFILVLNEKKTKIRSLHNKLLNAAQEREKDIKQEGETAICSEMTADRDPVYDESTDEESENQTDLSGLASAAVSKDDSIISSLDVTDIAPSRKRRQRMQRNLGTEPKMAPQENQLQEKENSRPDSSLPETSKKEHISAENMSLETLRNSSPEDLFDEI
Procedure, shortened: as §1

T4 DNA ligase = target: T3, T4 DNA ligase (Enterobacteria phage T4, UniProt P00970); experiment: High-throughput fluorescence-based DNA joining assay, non-specific inhibitor control; type: biochemical, bacteriophage T4
T3 construct: purchased NEB
T3 sequence (P00970 1-487): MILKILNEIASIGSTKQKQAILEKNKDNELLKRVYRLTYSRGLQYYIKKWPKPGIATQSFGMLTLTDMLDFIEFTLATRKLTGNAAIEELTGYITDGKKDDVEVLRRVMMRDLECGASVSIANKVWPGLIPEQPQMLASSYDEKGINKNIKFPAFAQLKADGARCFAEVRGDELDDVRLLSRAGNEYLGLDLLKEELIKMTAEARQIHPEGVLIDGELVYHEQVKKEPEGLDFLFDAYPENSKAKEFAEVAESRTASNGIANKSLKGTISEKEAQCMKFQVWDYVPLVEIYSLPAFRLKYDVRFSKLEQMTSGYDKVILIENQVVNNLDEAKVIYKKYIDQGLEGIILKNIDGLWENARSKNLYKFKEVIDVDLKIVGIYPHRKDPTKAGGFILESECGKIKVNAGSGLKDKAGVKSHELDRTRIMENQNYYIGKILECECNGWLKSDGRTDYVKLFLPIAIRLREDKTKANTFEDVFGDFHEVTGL
Procedure, shortened: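 This counter-screen used a FRET-based DNA joining assay. Duplicate reactions held 10 pmol nicked DNA substrate and 10 units T4 DNA ligase, with or without 100 μmol/L compound. T4 ligase lacks the DNA-binding domain targeted in silico, so compounds inhibiting it were flagged as non-specific, likely DNA-binding.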

hLigIV/XRCC4 = hLigIV/XRCC4 (Homo sapiens, UniProt P49917); experiment: Radioactive gel-based DNA ligation assay; type: biochemical; set-up: concentration or dose not given beside the values
Sequence of hLigIV/XRCC4 (P49917 whole entry): as the sequence (P49917 whole entry) above
Sequence of hLigIV/XRCC4 (Q13426 whole entry partner): as the sequence (Q13426 whole entry partner) above

[1] = test system: MCF7, HCT116, HeLa, and MCF10A cells; experiment: Survival assay on cell panel (FIG. 9); type: cell-based, human; details: Homo sapiens; cell line not stated
Excerpt: FIG. 9. […] A, effect of L67 (left) and L189 (right) on the survival of MCF7 (Δ), HCT116 (□), HeLa (⋄), and MCF10A (upsidedown triangle) cells. B, normal breast epithelial MCF10A cells (open symbols) and breast cancer MCF7 cells (filled symbols) in the absence (circles) or presence of 3 μmol/L of L67 (squares) were exposed to increasing concentrations of MMS (left). Normal breast epithelial MCF10A cells (open symbols) and colon cancer HCT116 cells (filled symbols) in the absence (circles) or presence of 20 μmol/L of L189 (squares) were exposed to increasing doses of ionizing radiation (right). C, hLigI (I), hLigIIIα (III), and hLigIV (IV) were detected in extracts (400 μg) of the indicated cell lines by immunoblotting. To control for extract loading β-actin was also detected by immunoblotting.
For survival assays, cells were plated in 6 well plates and grown either in the absence or presence of ligase inhibitors. Where indicated, either MMS (0-50 μM) was added to the medium or the cells were irradiated in a Cs-137 irradiator (0-2.5 Gy). After two weeks, colonies were stained with crystal violet (Sigma) and then counted.

hLigIIIβ = target: T4, hLigIIIβ (Homo sapiens, UniProt P49916); experiment: Radioactive gel-based DNA ligation assay; type: biochemical; details: grades ±, Ø (key not given)
T4 sequence (P49916 1-862 isoform P49916-4): T2 sequence (P49916 1-862 isoform P49916-4)

[2] = test system: Human DNA ligases I, III and IV and T4 DNA ligase; experiment: Step 3 of the ligation reaction: ligation of preadenylated nick by non-adenylated ligase; type: biochemical; details: 100 μM, FIG. 3C
Experimental: To analyze step 3 of the ligation reaction, an adenylated labeled version of the 18-mer was prepared as described (24). The DNA substrate containing a preadenylated nick (0.5 pmol) and hLigI (0.05 pmol), hLigIIIβ (0.05 pmol), hLigIV/XRCC4 (0.1 pmol), or T4 DNA ligase (0.05 pmol) were incubated in ligation buffer without ATP, either in the presence or absence of the ligase inhibitors (100 μmol/L). Reactions were stopped by the addition of an equal volume of gel loading dye (95% formamide, 0.05% bromophenol blue, and 0.05% xylene cyanol). After heating at 95° C. for 5 min, DNA was separated by denaturing polyacrylamide gel electrophoresis. Labeled oligonucleotides were detected and quantitated in the dried gel by phosphorImager analysis (Molecular Dynamics).
Since the final two steps of the ligation reaction involve interactions with DNA, we examined the effects of the ligase inhibitors on the second (FIG. 3B) (The labeled ligase-adenylate form of human DNA ligases I, III and IV and T4 DNA ligase were incubated with a linear DNA substrate containing a single non-ligatable nick in the absence or presence of compounds 67, 82 and 189 (100 μM). After separation by denaturing gel electrophoresis, the labeled DNA-AMP complex was detected by phosphorimaging (26)) and third steps (FIG. 3C) of the ligation reaction using established assays (25,26) (Non-adenylated human DNA ligases I, III and IV and T4 DNA ligase were incubated with labeled DNA-AMP in the absence or presence of compounds 67, 82 and 189 (100 μM). After separation by denaturing gel electrophoresis, labeled ligated DNA was detected by phosphorimaging (25)).

[3] = 100 μM, read-out: In vitro % inhib hLigI 100
[4] = 100 μM, read-out: In vitro % inhib hLigIV 100
[5] = 100 uM, Ø not defined (0 in Table 5A), read-out: % activity Inhibition hLigIV 100 uM
[6] = 100 μM, read-out: In vitro % inhib T4 100
[7] = 100 uM, Ø not defined (0 in Table 5A)

With O=C(O)Cc1cncc(Br)c1 [Compound 122] the “% activity Inhibition hLigI 100 uM” value (hLigI; 100 uM) was “Ø”, the inhibition at 100 µM (hLigI; [3]) was 0% and the inhibition at 100 µM (human DNA ligase III; 100 μM) was 0%. The “% activity Inhibition hLigIII 100 uM” value (human DNA ligase III) was “Ø”, the inhibition at 100 µM (human DNA ligase IV; [4]) was 50 ± 5% and the inhibition at 100 µM (human DNA ligase IV; [5]) was 16.1 ± 19.1%. For the same compound, the “inhibition of human DNA ligase IV, in words” value (human DNA ligase IV) was “specific for DNA ligase IV”, the “% activity Inhibition LigT4 100 uM” value (T4 DNA ligase) was “Ø” and the inhibition at 100 µM (T4 DNA ligase; [6]) was 0%. The “% activity Inhibition hLigIV gel” value (hLigIV/XRCC4) was 50% and the EC50 [1] was over 100 µM.
NS(=O)(=O)c1ccc(CCNC(=O)CCS(=O)(=O)c2ccc(Br)cc2)cc1 [Compound 113] was tested, and the “% activity Inhibition hLigI 100 uM” value (hLigI; 100 uM) was 53.4 ± 7.6%, the “In vitro % inhib hLigI 100 (μM)” value (hLigI; 100 μM) was 53 ± 8% and the “hLigI_Inh % (100 μM)” value (hLigI; 100 μM, percentage of values obtained with DMSO alone) was 53.4 ± 7.6%. The “inhibition of hLigI (DNA ligase I), in words” value (hLigI) was “inhibited hLigI; also recorded: specifically inhibits both DNA ligases I and IV”, the “In vitro % inhib hLigIII 100 (μM)” value (human DNA ligase III; 100 μM) was 0% and the “% activity Inhibition hLigIII 100 uM” value (human DNA ligase III) was “Ø”. The “In vitro % inhib hLigIV 100 (μM)” value (human DNA ligase IV; 100 μM) was 83 ± 5%, the “% activity Inhibition hLigIV 100 uM” value (human DNA ligase IV; [7]) was over 50% and the “inhibition of human DNA ligase IV, in words” value (human DNA ligase IV) was “specifically inhibits both DNA ligases I and IV”. For the same compound, the “% activity Inhibition LigT4 100 uM” value (T4 DNA ligase) was 5.4 ± 4.5%, the “In vitro % inhib T4 100 (μM)” value (T4 DNA ligase; 100 μM) was 5 ± 5% and the “% activity Inhibition hLigIII gel” value (hLigIIIβ) was “Ø”. The “% activity Inhibition hLigIV gel” value (hLigIV/XRCC4) was 83%.
CSc1ccc(C(=O)O)s1 [Compound 1] was tested, and the inhibition at 100 µM (hLigI; 100 uM, read-out: % activity Inhibition hLigI 100 uM) was 40.3 ± 8.6%, the inhibition at 100 µM (hLigI; [3]) was 40 ± 9% and the “inhibition of hLigI (DNA ligase I), in words” value (hLigI) was “specific for DNA ligase I”. For the same compound, the inhibition at 100 µM (human DNA ligase III; 100 μM) was 0%, the “% activity Inhibition hLigIII 100 uM” value (human DNA ligase III) was “Ø” and the inhibition at 100 µM (human DNA ligase IV; [4]) was 0%. The “% activity Inhibition hLigIV 100 uM” value (human DNA ligase IV; [7]) was “Ø”, the inhibition at 100 µM (T4 DNA ligase; [6]) was 0% and the inhibition at 100 µM (T4 DNA ligase; read-out: % activity Inhibition LigT4 100 uM) was 0%. The “% activity Inhibition hLigIII gel” value (hLigIIIβ) was “Ø”.
O=C(O)c1cnn2c(C(F)(F)F)cc(-c3ccco3)nc12 [Compound 215] was tested, and the “% activity Inhibition hLigI 100 uM” value (hLigI; 100 uM) was “Ø”, the inhibition at 100 µM (hLigI; [3]) was 0% and the inhibition at 100 µM (human DNA ligase III; 100 μM) was 0%. For the same compound, the “% activity Inhibition hLigIII 100 uM” value (human DNA ligase III) was “Ø”, the inhibition at 100 µM (human DNA ligase IV; [4]) was 61 ± 1% and the inhibition at 100 µM (human DNA ligase IV; [5]) was 60.7 ± 1.3%. For the same compound, the “inhibition of human DNA ligase IV, in words” value (human DNA ligase IV) was “specific for DNA ligase IV”, the “% activity Inhibition LigT4 100 uM” value (T4 DNA ligase) was “Ø” and the inhibition at 100 µM (T4 DNA ligase; [6]) was 0%. The “% activity Inhibition hLigIV gel” value (hLigIV/XRCC4) was 53% and the EC50 [1] was over 100 µM.
With O=C(O)CN1C(=O)C(=O)c2ccccc21 [Compound 76] the “inhibition of step 3 of the ligation reaction” value [2] was “inhibit step 3”.
